Data: ChEMBL document CHEMBL1201862, “PubChem BioAssay data set” (2004)
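Five concentrations, 48 hours, 96-well plates. Abbreviation: GI50, concentration required for 50% inhibition of growth.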 Activity calls are given as the source filed them. No stated cut-off is given here; in the data, active = GI50 up to about 1.1 µM and inactive = higher.

Columns and labels:
Assay in all cases: NCI anticancer screen, dose series, 48 h
NCI/ADR-RES = system: NCI/ADR-RES
OVCAR-8 = system: OVCAR-8
RPMI-8226 = system: RPMI-8226
ACHN = system: ACHN
SW-620 = system: SW-620
KM12 = system: KM12
SF-268 = system: SF-268
MCF7 = system: MCF7
HCC 2998 = system: HCC 2998
A549 = system: A549
IGROV-1 = system: IGROV-1
TK-10 = system: TK-10
SK-MEL-2 = system: SK-MEL-2
HCT-116 = system: HCT-116
UO-31 = system: UO-31
MDA-N = system: MDA-N
M14 = system: M14
K562 = system: K562
NCI-H460 = system: NCI-H460

Structure (SMILES) | GI50 (NCI/ADR-RES) | GI50 (OVCAR-8) | GI50 (RPMI-8226) | GI50 (ACHN) | GI50 (SW-620) | GI50 (KM12) | GI50 (SF-268) | GI50 (MCF7) | GI50 (HCC 2998) | GI50 (A549) | GI50 (IGROV-1) | GI50 (TK-10) | GI50 (SK-MEL-2) | GI50 (HCT-116) | GI50 (UO-31) | GI50 (MDA-N) | GI50 (M14) | GI50 (K562) | GI50 (NCI-H460)
Cc1cn(C2CC(O)C(Cn3nncc3Cn3ncc(=O)[nH]c3=O)O2)c(=O)[nH]c1=O (configuration not stated) | > 100 µM (inactive) | > 100 µM (inactive) | > 100 µM (inactive) | > 100 µM (inactive) | > 100 µM (inactive) | > 100 µM (inactive) | > 100 µM (inactive) | > 100 µM (inactive) | > 100 µM (inactive) | > 100 µM (inactive) | > 100 µM (inactive) | > 100 µM (inactive) | > 100 µM (inactive) | > 100 µM (inactive) | > 100 µM (inactive) | > 100 µM (inactive) | > 100 µM (inactive) | – | –
COC(=O)CC1C(C)(C)C(=O)C2CC3=C4CC(=O)OC(c5ccoc5)C4(C)CCC3C1(C)C2=O (configuration not stated) | > 100 µM (inactive) | > 100 µM (inactive) | > 100 µM (inactive) | > 100 µM (inactive) | > 100 µM (inactive) | > 100 µM (inactive) | > 100 µM (inactive) | > 100 µM (inactive) | > 100 µM (inactive) | > 100 µM (inactive) | > 100 µM (inactive) | > 100 µM (inactive) | > 100 µM (inactive) | > 100 µM (inactive) | – | > 100 µM (inactive) | > 100 µM (inactive) | > 100 µM (inactive) | > 100 µM (inactive)
NC(Cc1c[nH]c2ccccc12)P(=O)(O)O (configuration not stated) | > 100 µM (inactive) | > 100 µM (inactive) | > 100 µM (inactive) | > 100 µM (inactive) | > 100 µM (inactive) | > 100 µM (inactive) | > 100 µM (inactive) | > 100 µM (inactive) | > 100 µM (inactive) | > 100 µM (inactive) | > 100 µM (inactive) | > 100 µM (inactive) | > 100 µM (inactive) | > 100 µM (inactive) | > 100 µM (inactive) | > 100 µM (inactive) | > 100 µM (inactive) | > 100 µM (inactive) | > 100 µM (inactive)
COc1nc(NC2OC(COC(C)=O)C(OC(C)=O)C(OC(C)=O)C2OC(C)=O)c(/N=C/C=N/c2c(NC3OC(COC(C)=O)C(OC(C)=O)C(OC(C)=O)C3OC(C)=O)nc(OC)n(C)c2=O)c(=O)n1C (configuration not stated) | > 100 µM (inactive) | > 100 µM (inactive) | > 100 µM (inactive) | > 100 µM (inactive) | > 100 µM (inactive) | > 100 µM (inactive) | > 70.3 µM (inactive) | > 100 µM (inactive) | > 100 µM (inactive) | > 100 µM (inactive) | > 100 µM (inactive) | 56.4 µM (inactive) | > 100 µM (inactive) | > 100 µM (inactive) | > 100 µM (inactive) | > 100 µM (inactive) | > 100 µM (inactive) | > 100 µM (inactive) | > 100 µM (inactive)
CCCCCCCCCCCCCCCCCCNc1ccn(C2OC(CO)C(O)C2O)c(=O)n1 (configuration not stated) | > 100 µM (inactive) | > 100 µM (inactive) | 34 µM (inactive) | > 100 µM (inactive) | > 100 µM (inactive) | 84.1 µM (inactive) | > 100 µM (inactive) | 57.1 µM (inactive) | 50.5 µM (inactive) | 79.8 µM (inactive) | 14.9 µM (inactive) | > 100 µM (inactive) | > 100 µM (inactive) | > 100 µM (inactive) | > 100 µM (inactive) | > 100 µM (inactive) | 55.5 µM (inactive) | > 73.8 µM (inactive) | > 100 µM (inactive)
O=C(Cn1c2c(c3ccccc31)CCCC2)N1CCCCC1 | > 100 µM (inactive) | > 100 µM (inactive) | > 100 µM (inactive) | > 100 µM (inactive) | > 100 µM (inactive) | – | – | > 100 µM (inactive) | > 100 µM (inactive) | > 100 µM (inactive) | > 100 µM (inactive) | > 100 µM (inactive) | > 100 µM (inactive) | > 100 µM (inactive) | > 100 µM (inactive) | > 100 µM (inactive) | > 100 µM (inactive) | – | > 100 µM (inactive)
COc1cc2c(cc1OC)CC(N=[N+]=[N-])c1cc(OC)c(OC)cc1/C=C\2 (configuration not stated) | 25.2 µM (inactive) | 18.4 µM (inactive) | 35.3 µM (inactive) | 59 µM (inactive) | 83.6 µM (inactive) | 30.2 µM (inactive) | 51.8 µM (inactive) | 49.7 µM (inactive) | 81.7 µM (inactive) | 38.8 µM (inactive) | 50.9 µM (inactive) | > 100 µM (inactive) | 39.5 µM (inactive) | 28.7 µM (inactive) | 38.5 µM (inactive) | 5.75 µM (inactive) | 24.2 µM (inactive) | 27.2 µM (inactive) | 43.4 µM (inactive)
Cc1ccc2nc(Cl)c(/C=N/N3C(=O)/C(=C/c4ccc(N(C)C)cc4)N=C3c3ccccc3)cc2c1 | 32.7 µM (inactive) | 41.8 µM (inactive) | 23.7 µM (inactive) | 76.9 µM (inactive) | 57.8 µM (inactive) | 40.7 µM (inactive) | 37.2 µM (inactive) | 29 µM (inactive) | 66.2 µM (inactive) | 37.8 µM (inactive) | 29 µM (inactive) | > 100 µM (inactive) | 21.9 µM (inactive) | 39.4 µM (inactive) | 37 µM (inactive) | 29.1 µM (inactive) | 47.8 µM (inactive) | 59.4 µM (inactive) | 37.5 µM (inactive)
CC(C)(C)C(=O)C(N)C(=O)C(C)(C)C | > 100 µM (inactive) | > 100 µM (inactive) | > 100 µM (inactive) | > 100 µM (inactive) | > 100 µM (inactive) | > 100 µM (inactive) | > 100 µM (inactive) | > 100 µM (inactive) | > 100 µM (inactive) | > 100 µM (inactive) | – | > 100 µM (inactive) | > 100 µM (inactive) | > 100 µM (inactive) | > 100 µM (inactive) | > 100 µM (inactive) | > 100 µM (inactive) | > 100 µM (inactive) | > 100 µM (inactive)
COc1cc2c(cc1OC)C(=O)/C(=C/c1cc(Cl)cc(Cl)c1)C2 | 1.76 µM (inactive) | – | 4.94 µM (inactive) | 7.91 µM (inactive) | 3.79 µM (inactive) | 1.38 µM (inactive) | 21.4 µM (inactive) | 2.99 µM (inactive) | 0.351 µM (active) | 12.1 µM (inactive) | 2.65 µM (inactive) | 55.3 µM (inactive) | 23.5 µM (inactive) | 3.58 µM (inactive) | > 100 µM (inactive) | 1.57 µM (inactive) | 4.18 µM (inactive) | 0.859 µM (active) | 4.73 µM (inactive)
